Data on three compounds can be found in patent US9604989B2, “Imidazopyridazines as Akt kinase inhibitors” (Bayer Intellectual Property GmbH, priority 2011, dated 2017).

pIC50: −log10 of the molar value.

Sequence of His-tagged human recombinant kinase full-length Akt2 (P31751 whole entry): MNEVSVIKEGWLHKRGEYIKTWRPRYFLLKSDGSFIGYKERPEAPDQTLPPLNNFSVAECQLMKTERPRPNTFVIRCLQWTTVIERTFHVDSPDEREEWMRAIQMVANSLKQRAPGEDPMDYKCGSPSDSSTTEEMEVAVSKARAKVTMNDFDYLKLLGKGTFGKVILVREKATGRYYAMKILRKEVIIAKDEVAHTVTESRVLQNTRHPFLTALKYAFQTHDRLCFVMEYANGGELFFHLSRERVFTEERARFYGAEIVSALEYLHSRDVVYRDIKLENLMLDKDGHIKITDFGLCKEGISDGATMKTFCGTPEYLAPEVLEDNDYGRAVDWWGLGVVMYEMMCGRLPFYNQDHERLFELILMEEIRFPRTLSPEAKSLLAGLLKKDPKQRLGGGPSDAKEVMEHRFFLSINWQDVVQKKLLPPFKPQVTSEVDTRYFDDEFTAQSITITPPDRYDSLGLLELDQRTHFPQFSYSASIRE

The target of one experiment is His-tagged human recombinant kinase full-length Akt1 (Homo sapiens (Human), UniProt P31749). Briefly: Akt1 kinase assay (Akt1 TR-FRET assay). It counts as biochemical. To be noted: 10 μM ATP, 60 min at 22° C., read-out: Akt1 median IC50. For orientation: Time-resolved FRET reads energy transfer from a long-lived donor to a nearby acceptor.
Sequence of His-tagged human recombinant kinase full-length Akt1 (P31749 whole entry): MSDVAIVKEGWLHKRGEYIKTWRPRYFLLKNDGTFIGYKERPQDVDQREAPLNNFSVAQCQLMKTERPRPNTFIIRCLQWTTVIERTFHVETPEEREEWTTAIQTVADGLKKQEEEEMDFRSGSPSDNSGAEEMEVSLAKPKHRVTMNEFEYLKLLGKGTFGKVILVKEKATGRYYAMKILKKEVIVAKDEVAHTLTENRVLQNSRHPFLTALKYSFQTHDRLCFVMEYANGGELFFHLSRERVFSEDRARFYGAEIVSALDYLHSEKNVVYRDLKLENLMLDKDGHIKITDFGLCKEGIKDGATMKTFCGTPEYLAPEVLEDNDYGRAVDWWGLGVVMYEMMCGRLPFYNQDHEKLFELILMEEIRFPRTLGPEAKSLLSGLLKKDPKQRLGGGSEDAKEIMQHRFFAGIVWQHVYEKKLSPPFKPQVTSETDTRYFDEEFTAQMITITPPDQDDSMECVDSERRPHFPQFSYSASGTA
Consider `COc1ccc2nc(-c3ccc(C4(N)CCC4)cc3)c(-c3ccccc3)n2n1` [Example 6, 1-[4-(6-Methyloxy-3-phenylimidazo[1,2-b]pyridazin-2-yl)phenyl]cyclobutanamine], for which the negative-log IC50 (pIC50) is 8.38.

For `CC(=O)Nc1ccc2nc(-c3ccc(C4(N)CCC4)cc3)c(-c3ccccc3)n2n1` [Example 37, N-{2-[4-(1-Aminocyclobutyl)phenyl]-3-phenylimidazo[1,2-b]pyridazin-6-yl}acetamide], the pIC50 was 6.24.

Consider `NC1(c2ccc(-c3nc4ccc(C(=O)O)nn4c3-c3ccccc3)cc2)CCC1` [Example 8, 2-[4-(1-Aminocyclobutyl)phenyl]-3-phenylimidazo[1,2-b]pyridazine-6-carboxylic acid], for which the negative-log IC50 (pIC50) was 6.35.

For a further experiment, the system named is MCF-7 breast tumour cell line. Briefly: Tumor cell proliferation assay (CellTiter-Glo), MCF-7. It counts as cell-based. To be noted: Homo sapiens, MCF7, 72 h drug exposure, read-out: MCF-7 median IC50. (ATP-based viability assays read luminescence as a measure of living cells.)
Method: (§1) Biological Assay 4.0: Tumor Cell Proliferation Assays
(§2) Compounds were tested in a cell-based assay that measures the capacity of the compounds to inhibit tumour cell proliferation following a 72 h drug exposure. Cell viability is determined using CellTiter-Glow® (CTG, Promega, cat#G7571/2/3). The CellTiter-Glo® Luminescent Cell Viability Assay is a homogeneous method to determine the number of viable cells in culture.
(§3) Detection is based on using the luciferase reaction to measure the amount of ATP from viable cells. The amount of ATP in cells correlates with cell viability. Within minutes after a loss of membrane integrity, cells lose the ability to synthesize ATP, and endogenous ATPases destroy any remaining ATP; thus the levels of ATP fall precipitously.
(§4) For each cell line assayed, cells were plated onto a separate plate for determination of fluorescence at t=0 hour and t=72 hour time points. Following overnight incubation at 37° C., chemiluminescence values for the t=0 samples were determined after adding 10 μl medium and 100 μl CTG solution according to manufacture protocol. Plates for the t=72 hour time points were treated with compounds diluted into growth medium at ten times final concentration added in 10 μL to the cell culture plate. Cells were then incubated for 72 hours at 37° C. Chemiluminescence values for the t=72 hour samples were determined. […] Experiments were controlled using a reference compound as standard.
Take `COc1ccc2nc(-c3ccc(C4(N)CCC4)cc3)c(-c3ccccc3)n2n1` [Example 6, 1-[4-(6-Methyloxy-3-phenylimidazo[1,2-b]pyridazin-2-yl)phenyl]cyclobutanamine]: the pIC50 was 5.92.

Regarding `CC(=O)Nc1ccc2nc(-c3ccc(C4(N)CCC4)cc3)c(-c3ccccc3)n2n1` [Example 37, N-{2-[4-(1-Aminocyclobutyl)phenyl]-3-phenylimidazo[1,2-b]pyridazin-6-yl}acetamide], the pIC50 was 5.70.

Regarding `NC1(c2ccc(-c3nc4ccc(C(=O)O)nn4c3-c3ccccc3)cc2)CCC1` [Example 8, 2-[4-(1-Aminocyclobutyl)phenyl]-3-phenylimidazo[1,2-b]pyridazine-6-carboxylic acid], the negative logarithm of the IC50 (pIC50) was less than 5.00.

The next experiment addresses His-tagged human recombinant kinase full-length Akt2 (Homo sapiens (Human), UniProt P31751). Briefly: Akt2 kinase assay (Akt2 TR-FRET assay). It counts as biochemical. The settings on record: 10 μM ATP, 60 min at 22° C., read-out: Akt2 median IC50.
From the text: Akt2 inhibitory activity of compounds of the present invention was quantified employing the Akt2 TR-FRET assay as described in the following paragraphs.
His-tagged human recombinant kinase full-length Akt2 expressed in insect cells and activated by PDK1 was purchased form Invitrogen (part number PV 3975). As substrate for the kinase reaction the biotinylated peptide biotin-Ahx-[sequence] (C-terminus in amide form) was used which can be purchased e.g. from the company Biosynthan GmbH (Berlin-Buch, Germany). For the assay 50 nl of a 100 fold concentrated solution of the test compound in DMSO was pipetted into a black low volume 384 well microtiter plate (Greiner Bio-One, Frickenhausen, Germany), 2 μl of a solution of Akt2 in assay buffer [50 mM TRIS/HCl pH 7.5, 5 mM MgCl2, 1 mM dithiothreitol, 0.02% (v/v) Triton X-100 (Sigma)] were added and the mixture was incubated for 15 min at 22° C. to allow pre-binding of the test compounds to the enzyme before the start of the kinase reaction. Then the kinase reaction was started by the addition of 3 μl of a solution of adenosine-tri-phosphate (ATP, 16.7 μM=>final conc. in the 5 μl assay volume is 10 μM) and substrate (1.67 μM=>final conc. in the 5 μl assay volume is 1 μM) in assay buffer and the resulting mixture was incubated for a reaction time of 60 min at 22° C. The concentration of Akt2 in the assay was adjusted depending of the activity of the enzyme lot and was chosen appropriate to have the assay in the linear range, typical enzyme concentrations were in the range of about 0.2 ng/μl (final conc. in the 5 μl assay volume). The reaction was stopped by the addition of 5 μl of a solution of HTRF detection reagents (200 nM streptavidine-XL665 [Cisbio] and 1.5 nM anti-phosho-Serine antibody [Millipore, cat. #35-001] and 0.75 nM LANCE Eu-W 1024 labeled anti-mouse IgG antibody [Perkin Elmer]) in an aqueous EDTA-solution (100 mM EDTA, 0.1% (w/v) bovine serum albumin in 50 mM HEPES/NaOH pH 7.5). The resulting mixture was incubated 1 h at 22° C. to allow the binding of the biotinylated phosphorylated peptide to the streptavidine-XL665 and the antibodies. Subsequently the amount of phosphorylated substrate was evaluated by measurement of the resonance energy transfer from the anti-mouse-IgG-Eu-Chelate to the streptavidine-XL665. Therefore, the fluorescence emissions at 620 nm and 665 nm after excitation at 350 nm was measured in a TR-FRET reader, e.g. a Rubystar (BMG Labtechnologies, Offenburg, Germany) or a Viewlux (Perkin-Elmer). The ratio of the emissions at 665 nm and at 622 nm was taken as the measure for the amount of phosphorylated substrate.
Regarding `COc1ccc2nc(-c3ccc(C4(N)CCC4)cc3)c(-c3ccccc3)n2n1` [Example 6, 1-[4-(6-Methyloxy-3-phenylimidazo[1,2-b]pyridazin-2-yl)phenyl]cyclobutanamine], the negative-log IC50 (pIC50) was 7.10.

`CC(=O)Nc1ccc2nc(-c3ccc(C4(N)CCC4)cc3)c(-c3ccccc3)n2n1` [Example 37, N-{2-[4-(1-Aminocyclobutyl)phenyl]-3-phenylimidazo[1,2-b]pyridazin-6-yl}acetamide]: the pIC50 is 6.29.

Turning to `NC1(c2ccc(-c3nc4ccc(C(=O)O)nn4c3-c3ccccc3)cc2)CCC1` [Example 8, 2-[4-(1-Aminocyclobutyl)phenyl]-3-phenylimidazo[1,2-b]pyridazine-6-carboxylic acid], the negative logarithm of the IC50 (pIC50) is 6.40.

A further experiment relates to KPL-4 breast cancer cell line. Briefly: Tumor cell proliferation assay (CellTiter-Glo), KPL-4. It counts as cell-based. The settings on record: Homo sapiens, KPL4, 72 h drug exposure, read-out: KLP-4 median IC50.
Method: as §1, §2, §3, §4
`COc1ccc2nc(-c3ccc(C4(N)CCC4)cc3)c(-c3ccccc3)n2n1` [Example 6, 1-[4-(6-Methyloxy-3-phenylimidazo[1,2-b]pyridazin-2-yl)phenyl]cyclobutanamine]: the pIC50 was 5.96.

In the case of `CC(=O)Nc1ccc2nc(-c3ccc(C4(N)CCC4)cc3)c(-c3ccccc3)n2n1` [Example 37, N-{2-[4-(1-Aminocyclobutyl)phenyl]-3-phenylimidazo[1,2-b]pyridazin-6-yl}acetamide], the pIC50 was 5.49.

`NC1(c2ccc(-c3nc4ccc(C(=O)O)nn4c3-c3ccccc3)cc2)CCC1` [Example 8, 2-[4-(1-Aminocyclobutyl)phenyl]-3-phenylimidazo[1,2-b]pyridazine-6-carboxylic acid]: the negative-log IC50 (pIC50) was less than 5.00.

Another experiment relates to phospho-AKT at S473. Briefly: Cellular p-AKT1/2/3-S473 assay in KPL-4 cells. The class given is cell-based. To be noted: Homo sapiens, KPL4; KPL-4 breast tumour cell line, compound treatment 2 hours; read-out: pAKT-S473 median IC50.
`COc1ccc2nc(-c3ccc(C4(N)CCC4)cc3)c(-c3ccccc3)n2n1` [Example 6, 1-[4-(6-Methyloxy-3-phenylimidazo[1,2-b]pyridazin-2-yl)phenyl]cyclobutanamine]: the negative-log IC50 (pIC50) is 6.68.

As to `CC(=O)Nc1ccc2nc(-c3ccc(C4(N)CCC4)cc3)c(-c3ccccc3)n2n1` [Example 37, N-{2-[4-(1-Aminocyclobutyl)phenyl]-3-phenylimidazo[1,2-b]pyridazin-6-yl}acetamide], the pIC50 is 7.09.

For the compound `NC1(c2ccc(-c3nc4ccc(C(=O)O)nn4c3-c3ccccc3)cc2)CCC1` [Example 8, 2-[4-(1-Aminocyclobutyl)phenyl]-3-phenylimidazo[1,2-b]pyridazine-6-carboxylic acid], the pIC50 was less than 5.00.

In a further experiment the test system is p-4E-BP1 at T70. Description: Cellular p-4E-BP1-T70 assay in KPL-4 cells. The class given is cell-based. To be noted: Homo sapiens, KPL4; KPL-4 breast tumour cell line, compound treatment 2 hours; read-out: P4EBP1-T70 median IC50.
`COc1ccc2nc(-c3ccc(C4(N)CCC4)cc3)c(-c3ccccc3)n2n1` [Example 6, 1-[4-(6-Methyloxy-3-phenylimidazo[1,2-b]pyridazin-2-yl)phenyl]cyclobutanamine]: the pIC50 was 5.89.

For `CC(=O)Nc1ccc2nc(-c3ccc(C4(N)CCC4)cc3)c(-c3ccccc3)n2n1` [Example 37, N-{2-[4-(1-Aminocyclobutyl)phenyl]-3-phenylimidazo[1,2-b]pyridazin-6-yl}acetamide], the negative-log IC50 (pIC50) was 5.60.

As for `NC1(c2ccc(-c3nc4ccc(C(=O)O)nn4c3-c3ccccc3)cc2)CCC1` [Example 8, 2-[4-(1-Aminocyclobutyl)phenyl]-3-phenylimidazo[1,2-b]pyridazine-6-carboxylic acid], the negative logarithm of the IC50 (pIC50) is less than 5.00.

Usually pIC50 stands for the IC50 on a negative log10 scale, so that one unit is a factor of ten.
